From patent publication US8188102B2, “Amide derivative for inhibiting the growth of cancer cells” (Hanmi Holdings Co., Ltd., priority 2007, dated 2012)
pIC50: −log10 of the molar value. Read-outs that look alike come from different tables or passages of the source.

Columns and labels:
[1] = tested on: SK-Br3 breast cancer cell line; test: Cancer cell growth inhibition, SK-Br3 (SRB); details: Homo sapiens, SK-BR-3, 72 h, read-out: ID50 (nM) SK-Br3
EGFR = target: T1, EGFR (Homo sapiens, UniProt P00533); test: Prolongation study in A431 cells (EGFR phosphorylation inhibition); type: cell-based; details: A-431, 1 μM for 4 hrs, then washed, EGF 100 ng/ml
T1 construct: A skin cancer cell line, A431 (ATCC: CRL-1555), was used; endogenous in cells; host or cells: A431 (ATCC: CRL-1555)
Method: A skin cancer cell line, A431 (ATCC: CRL-1555), was used to test the degrees of the inventive compounds in inhibiting EGFR's phosphorylation and the prolongation of ability to inhibit it thereof.
The cell line was incubated in a culture flask at 37° C. under 95% air and 5% CO2 using a culture medium containing DMEM, 10% FBS and 1% PS. When more than 90% of the total volume of the culture flask became filled with cells, the cultured cell solution was subject to secondary incubation and was poured to each well of a 6-well plate to the extent of 500,000 cells/well. After 24 hrs, the cells were separated from the solution, washed with PBS, and incubated in a culture medium containing DMEM, 0.1% FBS and 1% PS for 16 hrs. The compounds obtained in Examples 1, 17, 19 and 36, and Tarceva as EGFR phosphorylation inhibitors were each added to the cell-containing well to a concentration of 1 μM. After 4 hrs, the cells were separated from the solution, washed 4 times with PBS after every 0, 2, 4 and 8 hrs, and incubated in a culture medium containing DMEM, 0.1% FBS and 1% PS. […] Just before the completion of the reaction, the cultured cell solution was treated with a 100 ng/ml concentration of EGF (Sigma, Cat No. E9644) for 5 mins to induce the activation of EGFR. After the completion of the reaction, the well plate holding the cultured cells was stored at −70° C. In control groups, the replacement of the medium was performed instead of the addition of the EGFR phosphorylation inhibitor, wherein the induction of EGFR activation using EGF was made only in a positive control group and not made in a negative control group.
For Western blot and enzyme immune measuring (ELISA) methods, the well plate stored at −70° C. was allowed to melt to room temperature, and then protein was extracted from the cells in the well plate using a protein extract buffer. The extraction of the protein was performed as follows: 250 μl of the protein extract buffer (Phosphosafe extraction reagent, Calbiochem, Cat No. 71296-3) comprising protease inhibitor cocktail was added to each cell-containing well, which was stirred at room temperature for 5 mins. The cells were collected using a cell scraper and put in an 1.5 ml tube, which was centrifuged at a speed of 16,000×g for 5 mins. The upper layer thus obtained was separated, of which the protein content was determined by a protein assay kit (Bio-rad, Cat No. 500-0116). The protein extracted was diluted with PBS to a concentration of 0.8 mg/ml.
A human EGFR (py1173) immunoassay kit (Biosource, Cat No. KHR9071) was used in the enzyme immune measuring method. 100 μl of the sample which was diluted by 4 folds with a standard dilution buffer in a kit was added to a strip well, which was incubated at a 4° C. refrigerator overnight. The cultured cells was separated therefrom and washed 4 times with 200 μl of a washing buffer. 100 μl of the resulting primary antibody (anti-human EGFR [pY1173]) was put to each strip well, incubated at 37° C. for 1 hr, and washed 4 times with 200 μl of a washing buffer. The resulting secondary antibody (anti-rabbit IgG-HRP) was diluted by 100 folds with an HRP dilution buffer in a kit. 100 μl of the dilute was put to each strip well, incubated at 37° C. for 30 mins, and washed 4 times with 200 μl of the washing buffer. 100 μl of an HRP substrate in a kit was put to each strip well and incubated in a darkroom for 10 to 30 mins. 100 μl of a reaction stop solution was added thereto to terminate the reaction, and then, the absorbance at 450 nm was observed.
Electrophoresis and Western blot methods were conducted based on the conventional methods in the following: An LDS buffer was added to each sample, which was allowed to boil at 70° C. for 10 mins. 10 μl of the resulting solution was loaded to a 12-well gel (Nupage 4˜12% Bis-tris gel, Invitrogen), followed by 120 volt-electrophoresis in a buffer (MOPS electrophoresis buffer, Invitrogen, Cat No. NP0006-1) for 2 hrs. […]

[2] = target: EGFR (EGFR type 1 kinase, Upstate) (Homo sapiens, UniProt P00533); test: Inhibition of EGFR enzyme (fluorescence polarization kinase assay); details: read-out: IC50 (nM) EGFR; EGFR type 1 kinase, ATP 50 μM
Method: 10 μl of an EGFR (EGFR type 1 kinase, Upstate, 10 ng/μl) was added to each well of a 96-well plate. […] The calculation and analysis of IC50 were carried out by using Microsoft Excel.

[3] = tested on: SW-620 colon/rectal cancer cell line; test: Cancer cell growth inhibition, SW-620 (SRB); details: Homo sapiens, SW-620, 72 h, read-out: IC50 (nM) SW-620
EGFR T790M kinase = EGFR T790M kinase (Homo sapiens, UniProt P00533, T790M); test: Inhibition of EGFR mutant enzyme (T790M); details: for IC50: read-out: IC50 (nM) T790M, EGFR T790M kinase
[4] = tested on: H1975 lung cancer cell line; test: Cancer cell growth inhibition, H1975 (celltiter); details: Homo sapiens, NCI-H1975, 48 h, read-out: IC50 (nM) H1975
Method: The medium was removed from each well of the 96-well plate.
In case of H1975, the cells were diluted with a culture medium to a concentration of 50,000 cells/ml. 100 μl of the diluted cell solution was added to each well of a 96-well plate, and, after 1 day, was washed with a mixture of RPMI, 0.1% FBS and 1% penicillin-streptomycin (PS), followed by replacement of the medium. The plate was allowed to be kept overnight and be treated to various concentrations under the same medium condition for 48 hrs. Similarly to an MTT assay, 15 μl of a celltiter one shot solution (Promega) was added to each well, which was incubated for 2 to 3 hrs, and, then, the absorbance at 490 nm was determined.

[5] = tested on: A431 skin cancer cell line; test: Cancer cell growth inhibition, A431 (SRB); details: Homo sapiens, A-431, 72 h, read-out: ID50 (nM) A431
[6] = 0 hr after washing, read-out: EGFR phosphorylation inhibition in A431 cell line (%) 0 hr Avg.
[7] = 8 hrs after washing, read-out: EGFR phosphorylation inhibition in A431 cell line (%) 8 hrs Avg.
[8] = 24 hrs after washing, read-out: EGFR phosphorylation inhibition in A431 cell line (%) 24 hrs Avg.
[9] = 48 hrs after washing, read-out: EGFR phosphorylation inhibition in A431 cell line (%) 48 hrs Avg.
[10] = 72 hrs after washing, read-out: EGFR phosphorylation inhibition in A431 cell line (%) 72 hrs Avg.

EGFR T790M kinase, sequence (P00533 25-1210 T790M): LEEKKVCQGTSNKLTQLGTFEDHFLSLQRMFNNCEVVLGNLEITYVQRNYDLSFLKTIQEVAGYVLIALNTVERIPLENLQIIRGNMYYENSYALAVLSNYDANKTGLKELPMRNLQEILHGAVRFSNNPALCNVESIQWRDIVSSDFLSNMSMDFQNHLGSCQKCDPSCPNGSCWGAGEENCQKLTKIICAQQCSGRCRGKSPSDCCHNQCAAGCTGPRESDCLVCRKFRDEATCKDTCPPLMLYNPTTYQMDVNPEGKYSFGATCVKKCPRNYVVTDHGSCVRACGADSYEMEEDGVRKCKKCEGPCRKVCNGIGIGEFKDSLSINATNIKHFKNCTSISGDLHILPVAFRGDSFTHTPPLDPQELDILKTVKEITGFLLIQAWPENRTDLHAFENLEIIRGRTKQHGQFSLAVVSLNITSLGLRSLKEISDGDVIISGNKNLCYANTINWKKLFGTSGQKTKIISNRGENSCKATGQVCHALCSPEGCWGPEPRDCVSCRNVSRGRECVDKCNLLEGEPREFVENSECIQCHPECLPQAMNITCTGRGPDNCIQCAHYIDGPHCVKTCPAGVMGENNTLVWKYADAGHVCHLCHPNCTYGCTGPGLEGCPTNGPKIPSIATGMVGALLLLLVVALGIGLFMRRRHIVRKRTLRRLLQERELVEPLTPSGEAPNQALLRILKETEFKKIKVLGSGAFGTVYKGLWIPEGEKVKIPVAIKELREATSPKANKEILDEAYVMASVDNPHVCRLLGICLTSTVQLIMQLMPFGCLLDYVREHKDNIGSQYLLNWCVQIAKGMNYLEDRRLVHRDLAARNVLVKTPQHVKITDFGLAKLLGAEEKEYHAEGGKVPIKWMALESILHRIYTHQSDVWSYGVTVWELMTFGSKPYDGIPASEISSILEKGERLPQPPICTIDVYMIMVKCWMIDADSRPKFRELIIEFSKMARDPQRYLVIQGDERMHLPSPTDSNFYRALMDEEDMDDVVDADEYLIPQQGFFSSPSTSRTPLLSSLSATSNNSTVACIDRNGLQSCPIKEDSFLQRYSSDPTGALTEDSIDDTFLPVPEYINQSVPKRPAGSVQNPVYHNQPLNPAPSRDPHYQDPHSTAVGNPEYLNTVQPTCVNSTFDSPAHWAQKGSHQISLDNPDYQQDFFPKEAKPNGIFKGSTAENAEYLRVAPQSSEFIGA
T1 sequence (P00533 25-1210): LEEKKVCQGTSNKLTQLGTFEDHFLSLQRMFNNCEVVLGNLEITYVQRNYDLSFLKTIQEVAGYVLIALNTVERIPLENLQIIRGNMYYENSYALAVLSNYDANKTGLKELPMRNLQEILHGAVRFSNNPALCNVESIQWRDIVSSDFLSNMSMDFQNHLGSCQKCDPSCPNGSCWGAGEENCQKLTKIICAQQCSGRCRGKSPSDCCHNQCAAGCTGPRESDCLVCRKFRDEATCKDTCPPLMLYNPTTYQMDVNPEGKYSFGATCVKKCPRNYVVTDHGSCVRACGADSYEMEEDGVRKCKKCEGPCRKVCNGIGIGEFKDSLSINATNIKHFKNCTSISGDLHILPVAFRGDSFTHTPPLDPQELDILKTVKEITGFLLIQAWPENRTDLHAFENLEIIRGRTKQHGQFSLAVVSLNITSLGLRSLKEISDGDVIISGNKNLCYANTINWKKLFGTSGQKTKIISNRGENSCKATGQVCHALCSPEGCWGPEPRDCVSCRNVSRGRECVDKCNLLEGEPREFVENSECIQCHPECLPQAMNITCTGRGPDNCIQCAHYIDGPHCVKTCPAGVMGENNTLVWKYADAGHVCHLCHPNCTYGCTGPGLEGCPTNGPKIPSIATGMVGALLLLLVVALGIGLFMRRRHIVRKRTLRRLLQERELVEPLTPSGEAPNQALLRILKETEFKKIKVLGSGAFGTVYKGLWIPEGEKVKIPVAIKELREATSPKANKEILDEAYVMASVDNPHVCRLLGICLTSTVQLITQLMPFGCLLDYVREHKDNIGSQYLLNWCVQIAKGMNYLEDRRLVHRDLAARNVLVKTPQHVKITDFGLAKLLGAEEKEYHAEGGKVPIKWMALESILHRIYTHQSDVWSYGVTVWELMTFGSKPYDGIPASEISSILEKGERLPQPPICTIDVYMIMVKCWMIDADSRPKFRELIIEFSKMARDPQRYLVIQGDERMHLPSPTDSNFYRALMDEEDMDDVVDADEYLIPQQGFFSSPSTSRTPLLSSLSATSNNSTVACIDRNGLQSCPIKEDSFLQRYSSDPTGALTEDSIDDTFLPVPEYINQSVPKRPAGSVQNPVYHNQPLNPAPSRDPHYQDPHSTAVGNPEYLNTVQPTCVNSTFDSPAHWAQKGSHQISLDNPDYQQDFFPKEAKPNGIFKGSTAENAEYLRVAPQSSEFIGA
EGFR (EGFR type 1 kinase, Upstate), sequence (P00533 25-1210): as above

In the case of `C=CC(=O)N1CCC(Oc2cc3c(Nc4ccc(F)c(Cl)c4F)ncnc3cc2OC)CC1` [Example 19, 1-(4-(4-(3-chloro-2,4-difluorophenylamino)-7-methoxyquinazolin-6-yloxy)piperidin-1-yl)pro-2-pen-1-one], the IC50 [1] was 0.3 nM, the inhibition at 1 µM (EGFR; [6]) was 81% and the inhibition at 1 µM (EGFR; [7]) was 86%. It also gave an inhibition at 1 µM (EGFR; [8]) of 80%, an inhibition at 1 µM (EGFR; [9]) of 34% and an inhibition at 1 µM (EGFR; [10]) of 0%. For the same compound, the IC50 [2] was 1.1 nM, the IC50 [3] was > 5000 nM and the IC50 (EGFR T790M kinase) was 1.9 nM. The IC50 [4] was 1.3 nM and the IC50 [5] was 0.3 nM.
Work on `C=CC(=O)N1CC(Oc2cc3c(Nc4ccc(F)c(Cl)c4F)ncnc3cc2OC)C1` [Example 17, 1-(3-(4-(3-chloro-2,4-difluorophenylamino)-7-methoxyquinazolin-6-yloxy)azetidin-1-yl)pro-2-pen-1-one] yielded an IC50 [1] of 0.3 nM, an inhibition at 1 µM (EGFR; [6]) of 87% and an inhibition at 1 µM (EGFR; [7]) of 88%. The inhibition at 1 µM (EGFR; [8]) was 62%, the inhibition at 1 µM (EGFR; [9]) was 31% and the inhibition at 1 µM (EGFR; [10]) was 0%. For the same compound, the IC50 [2] was 0.7 nM, the IC50 [3] was > 5000 nM and the IC50 (EGFR T790M kinase) was 0.8 nM. The IC50 [4] was 1.5 nM and the IC50 [5] was 0.3 nM.
For `C=CC(=O)N1CCC(Oc2cc3c(Nc4cccc(Cl)c4F)ncnc3cc2OC)CC1` [Example 34, 1-(4-(4-(3-chloro-2-fluorophenylamino)-7-methoxyquinazolin-6-yloxy)piperidin-1-yl)pro-2-pen-1-one], the IC50 [1] was 0.2 nM, the IC50 [2] was 6 nM and the IC50 [3] was > 5000 nM. For the same compound, the IC50 (EGFR T790M kinase) was 5 nM, the IC50 [4] was 22 nM and the IC50 [5] was 2 nM.
With `C=CC(=O)N1CCC(Oc2cc3c(Nc4ccc(F)c(Cl)c4F)ncnc3cc2OCCOC)CC1` [Example 117, 1-(4-(4-(3-Chloro-2,4-difluorophenylamino)-7-(2-methoxyethoxy)quinazolin-6-yloxy)piperidin-1-yl)prop-2-en-1-one] the IC50 [1] was 1.4 nM, the IC50 [2] was 0.7 nM and the IC50 [3] was > 5000 nM. For the same compound, the pIC50 (EGFR T790M kinase) was 8.52, the IC50 [4] was 47 nM and the IC50 [5] was 4 nM.
`C=CC(=O)N1CC[C@@H](Oc2cc3c(Nc4ccc(F)c(Cl)c4F)ncnc3cc2OC)C[C@@H]1C(=O)OC` [Example 133, (2R,4R)-methyl 1-acryloyl-4-(4-(3-chloro-2,4-difluorophenylamino)-7-methoxyquinazolin-6-yloxy)piperidin-2-carboxylate] was tested, and the IC50 [1] was 0.2 nM, the IC50 [2] was 4.4 nM and the IC50 [3] was > 5000 nM. It also gave an IC50 (EGFR T790M kinase) of 1.7 nM, an IC50 [4] of 5.4 nM and an IC50 [5] of 0.7 nM.
In the case of `C=CC(=O)N1CC[C@H](Oc2cc3c(Nc4ccc(Br)c(Cl)c4F)ncnc3cc2OC)C1` [Example 7, 1-((3S)-3-(4-(4-bromo-3-chloro-2-fluorophenylamino)-7-methoxyquinazolin-6-yloxy)pyrrolidin-1-yl)pro-2-pen-1-one], the IC50 [1] was 8 nM, the IC50 [2] was 10 nM and the IC50 [3] was > 5000 nM. It also gave an IC50 (EGFR T790M kinase) of 8 nM, an IC50 [4] of 55 nM and an IC50 [5] of 5 nM.
`C=CC(=O)N1CC(Oc2cc3c(Nc4cccc(Cl)c4)ncnc3cc2OC)C1` [Example 26, 1-(3-(4-(3-chlorophenylamino)-7-methoxyquinazolin-6-yloxy)azetidin-1-yl)pro-2-pen-1-one] was tested, and the IC50 [1] was 6 nM, the IC50 [2] was 1.6 nM and the IC50 [3] was > 5000 nM. The IC50 (EGFR T790M kinase) was 3.3 nM, the IC50 [4] was 17.7 nM and the IC50 [5] was 1.6 nM.
